Source: patent US11787769B2 (priority 2019, dated 2023)
Read-outs that look alike come from different tables or passages of the source.

Columns and labels:
Assay in all cases: microbe, parasite or virus in culture
[1] = tested on: influenza A virus (HA of H5N1, Goose/Qinghai/59/05); format: cell-based; conditions: for inhibition at 12.5 µM: H5N1, A549, 12.5 μM, read-out: H5N1 pseudotype assay % inhibition at 12.5 μM
[2] = tested on: PR8-PB2-Gluc, influenza A/Puerto Rico/8/1934 (PR8) H1N1 virus; format: cell-based; conditions: read-out: EC50 (nM), antiviral activity in the infectious IAV
PR8-NS1-Gluc virus = format: cell-based, influenza A PR8
[3] = Influenza A virus, H5N1, A549, read-out: H5N1 pseudotype assay EC50 (μM)
[4] = read-out: H5N1 pseudotype assay EC50
[5] = Influenza A virus, PR8, MDCK, 48 h

| SMILES | inhibition at 12.5 µM ([1]; Influenza A virus) [%] | EC50 ([2]; Influenza A virus, MDCK) [nM] | other results |
| --- | --- | --- | --- |
| CC(C)N1CCC(NC(=O)c2c(Cl)cccc2Cl)CC1 [Compound 1, 2,6-Dichloro-N-(1-isopropylpiperidin-4-yl)benzamide] | 90 | 272 ± 37 | EC50 [1, 3]: 3.04 ± 1.13 µM |
| CC(C)N1CCC(NC(=O)c2c(Cl)cccc2C(F)(F)F)CC1 [Compound 2, 2-Chloro-N-(1-isopropylpiperidin-4-yl)-6-(trifluoromethyl)benzamide] | 85 | 587 ± 140 | EC50 [1, 3]: 5.62 ± 2.16 µM |
| CC(C)N1CCC(NC(=O)c2ccccc2C(F)(F)F)CC1 [Compound 3, N-(1-Isopropylpiperidin-4-yl)-2-(trifluoromethyl)benzamide] | 31 | – | – |
| CC(C)N1CCC(NC(=O)c2ccc([N+](=O)[O-])cc2Cl)CC1 [Compound 4, 2-Chloro-N-(1-isopropylpiperidin-4-yl)-4-nitrobenzamide] | 97 | 211 ± 43 | EC50 [1, 3]: 0.72 ± 0.09 µM |
| CC(C)N1CCC(NC(=O)c2ccc(C(F)(F)F)cc2Cl)CC1 [Compound 5, 2-Chloro-N-(1-isopropylpiperidin-4-yl)-4-(trifluoromethyl)benzamide] | 99 | 380 ± 182 | EC50 [1, 3]: 0.36 ± 0.05 µM |
| CC(C)N1CCC(NC(=O)c2ncc(Cl)cc2Cl)CC1 [Compound 6, 3,5-Dichloro-N-(1-isopropylpiperidin-4-yl)picolinamide] | 39 | – | – |
| CC(C)N1CCC(NC(=O)c2ncc(C(F)(F)F)cc2Cl)CC1 [Compound 7, 3-Chloro-N-(1-isopropylpiperidin-4-yl)-5-(trifluoromethyl)picolinamide] | 76 | – | – |
| CC(C)N1CCC(NC(=O)c2ncccc2Cl)CC1 [Compound 8, 3-Chloro-N-(1-isopropylpiperidin-4-yl)picolinamide] | 40 | – | – |
| CC(C)N1CCC(N(C)C(=O)c2c(Cl)cccc2Cl)CC1 [Compound 9, 2,6-Dichloro-N-(1-isopropylpiperidin-4-yl)-N-methylbenzamide] | 91 | 724 ± 36 | EC50 [1, 3]: 4.45 µM |
| CC(C)N1CCC(N(Cc2ccccc2)C(=O)c2c(Cl)cccc2Cl)CC1 [Compound 10, N-Benzyl-2,6-dichloro-N-(1-isopropylpiperidin-4-yl)benzamide] | 67 | – | H5N1 pseudotype assay % inhibition at 12.5 μM ([1]; 12.5 μM): 64% |
| O=C(NC1CCN(C2CC2)CC1)c1c(Cl)cccc1Cl [Compound 11, 2,6-Dichloro-N-(1-cyclopropylpiperidin-4-yl)benzamide] | 33 | – | – |
| O=C(NC1CCN(C2CCC2)CC1)c1c(Cl)cccc1Cl [Compound 12, 2,6-Dichloro-N-(1-cyclobutylpiperidin-4-yl)benzamide] | 76 | – | – |
| CC(C)(C)N1CCC(NC(=O)c2c(Cl)cccc2Cl)CC1 [Compound 13, N-(1-(tert-Butyl)piperidin-4-yl)-2,6-dichlorobenzamide] | 99 | 113 ± 18 | EC50 [1, 3]: 0.51 ± 0.04 µM |
| CC(C)CN1CCC(NC(=O)c2c(Cl)cccc2Cl)CC1 [Compound 14, 2,6-Dichloro-N-(1-isobutylpiperidin-4-yl)benzamide] | 89 | 852 ± 79 | EC50 [1, 3]: 2.15 ± 0.64 µM |
| O=C(NC1CCN(C2COC2)CC1)c1c(Cl)cccc1Cl [Compound 15, 2,6-Dichloro-N-(1-(oxetan-3-yl)piperidin-4-yl)benzamide] | 7 | – | – |
| CC(C)CN1CCC(NC(=O)c2ccc(C(F)(F)F)cc2Cl)CC1 [Compound 17, 2-Chloro-N-(1-isobutylpiperidin-4-yl)-4-(trifluoromethyl)benzamide] | 73 | – | – |
| O=C(NC1CCN(C2CCCCC2)CC1)c1ccc(C(F)(F)F)cc1Cl [Compound 18, 2-Chloro-N-(1-cyclohexylpiperidin-4-yl)-4-(trifluoromethyl)benzamide] | 98 | 505 ± 174 | EC50 [1, 3]: 0.91 ± 0.25 µM |

| SMILES | inhibition at 12.5 µM ([1]; Influenza A virus) [%] | EC50 ([2]; Influenza A virus, MDCK) [nM] | other results |
| --- | --- | --- | --- |
| CC(C)N1CCC(NS(=O)(=O)c2ccc(Cl)cc2Cl)CC1 [Compound 19, 2,4-Dichloro-N-(1-isopropylpiperidin-4-yl)benzenesulfonamide] | 1 | – | – |
| CC(C)N1CCCC(NC(=O)c2c(Cl)cccc2Cl)C1 (centres unmarked) [Compound 20, 2,6-Dichloro-N-(1-isopropylpiperidin-3-yl)benzamide] | 14 | – | – |
| CC(C)N1CCC(CNC(=O)c2c(Cl)cccc2Cl)CC1 [Compound 21, 2,6-Dichloro-N-((1-isopropylpiperidin-4-yl)methyl)benzamide] | 23 | – | – |
| CC(C)N1CCC(NC(=O)c2c(Cl)cccc2Cl)C1 (centres unmarked) [Compound 22, 2,6-Dichloro-N-(1-isopropylpyrrolidin-3-yl)benzamide] | 11 | – | – |
| CC(C)N1CCCC(NC(=O)c2c(Cl)cccc2Cl)CC1 (centres unmarked) [Compound 23, 2,6-Dichloro-N-(1-isopropylazepan-4-yl)benzamide] | 71 | – | – |
| CC(C)N1CC2C(C1)C2NC(=O)c1c(Cl)cccc1Cl (centres unmarked) [Compound 24, 2,6-Dichloro-N-(3-isopropyl-3-azabicyclo[3. 1.0]hexan-6-yl)benzamide] | 61 | – | – |
| CC(C)N1CCN(C(=O)c2c(Cl)cccc2Cl)CC1 [Compound 25, (2,6-Dichlorophenyl)-(4-isopropylpiperazin-l-yl)methanone] | – | – | H5N1 pseudotype assay % inhibition at 12.5 μM [1]: 4% |
| CC(C)N1CCC2(CC1)OCCN2C(=O)c1c(Cl)cccc1Cl [Compound 26, (2,6-Dichlorophenyl)-(8-isopropyl-1-oxa-4,8-diazaspiro[4.5]decan-4-yl)methanone] | 19 | – | – |
| CC(C)N1CCC(C)(NC(=O)c2c(Cl)cccc2Cl)CC1 [Compound 27, 2,6-Dichloro-N-(1-isopropyl-4-methylpiperidin-4-yl)benzamide] | 75 | – | – |
| CO[C@H]1CN(C(C)C)CC[C@H]1NC(=O)c1c(Cl)cccc1Cl [Compound 28, 2,6-Dichloro-N-((3S,4R)-1-isopropyl-3-methoxypiperidin-4-yl)benzamide] | 64 | – | – |
| CC(C)N1CC[C@H](NC(=O)c2c(Cl)cccc2Cl)[C@@H](F)C1 [Compound 29, 2,6-Dichloro-N-((3S,45)-3-fluoro-1-isopropylpiperidin-4-yl)benzamide] | – | – | H5N1 pseudotype assay % inhibition at 12.5 μM ([1]; 12.5 μM): 87%; EC50 [1, 4]: 1.81 ± 0.45 µM; EC50 [2]: 885 ± 50 nM |
| CC(C)N1CCC(NC(=O)c2c(Cl)cccc2Cl)C(F)(F)C1 (centres unmarked) [Compound 30, 2,6-Dichloro-N-(3,3-difluoro-1-isopropylpiperidin-4-yl)benzamide] | 77 | – | – |
| CC(C)N1CC[C@H](NC(=O)c2ccc(C(F)(F)F)cc2Cl)[C@@H](F)C1 [Compound 31, 2-Chloro-N-((3S,45)-3-fluoro-1-isopropylpiperidin-4-yl)-4-(trifluoromethyl)benzamide] | – | – | H5N1 pseudotype assay % inhibition at 12.5 μM ([1]; 12.5 μM): 93%; EC50 [1, 4]: 1.16 ± 0.67 µM; EC50 [2]: 324 ± 105 nM |
| CC(C)N1CC[C@H](NC(=O)c2ccc(C(F)(F)F)cc2Cl)[C@H](F)C1 [Compound 32, 2-Chloro-N-((3R,45)-3-fluoro-1-isopropylpiperidin-4-yl)-4-(trifluoromethyl)benzamide] | – | – | H5N1 pseudotype assay % inhibition at 12.5 μM ([1]; 12.5 μM): 99%; EC50 [1, 4]: 0.63 ± 0.48 µM; EC50 [2]: 263 ± 33 nM |
| CC(C)N1CC[C@@H](NC(=O)c2ccc(C(F)(F)F)cc2Cl)[C@H](F)C1 [Compound 33, 2-Chloro-N-((3R,4R)-3-fluoro-1-isopropylpiperidin-4-yl)-4-(trifluoromethyl)benzamide] | 87 | 989 ± 323 | EC50 [1, 3]: 2.93 ± 0.3 µM |
| CC(C)N1CC[C@@H](NC(=O)c2ccc(C(F)(F)F)cc2Cl)[C@@H](F)C1 [Compound 34, 2-Chloro-N-((3S,4R)-3-fluoro-1-isopropylpiperidin-4-yl)-4-(trifluoromethyl)benzamide] | 99 | 195 ± 49 | EC50 [1, 3]: 0.67 ± 0.2 µM |
| CCC(CC)O[C@@H]1C=C(C(=O)O)C[C@H](N)[C@H]1NC(C)=O [Oseltamivir carboxylate, reference compound] | – | 181 ± 69 | EC30 (PR8-NS1-Gluc virus): 160 nM; EC40 (PR8-NS1-Gluc virus): 229 nM; EC60 (PR8-NS1-Gluc virus): 441 nM; EC70 (PR8-NS1-Gluc virus): 629 nM; EC80 (PR8-NS1-Gluc virus): 972 nM; EC50 (PR8-NS1-Gluc virus; [5]): 318 nM; EC90 (PR8-NS1-Gluc virus; [5]): 1870 nM |
